# In PMC12441834, “Highly Potent and Subtype-Selective Sperm-Specific Potassium Channel SLO3 Inhibitors Display High Tissue Exposure in the Murine Female Reproductive Tract” (ACS Pharmacology & Translational Science, 2025):
# Like-named read-outs stand apart in the source and are kept apart here.
# What was measured:
# [1] = biological target: T1, hSLO2.1 (Homo sapiens, UniProt Q6UVM3); assay: SLO2.1 inhibition in HEK cells; type: cell-based; settings: HEK293; read-out: HEK hSLO2.1 % inhib. 10 μM
# T1 construct: expressed in transfected cells; host or cells: HEK
# T1 sequence (Q6UVM3 1-1135): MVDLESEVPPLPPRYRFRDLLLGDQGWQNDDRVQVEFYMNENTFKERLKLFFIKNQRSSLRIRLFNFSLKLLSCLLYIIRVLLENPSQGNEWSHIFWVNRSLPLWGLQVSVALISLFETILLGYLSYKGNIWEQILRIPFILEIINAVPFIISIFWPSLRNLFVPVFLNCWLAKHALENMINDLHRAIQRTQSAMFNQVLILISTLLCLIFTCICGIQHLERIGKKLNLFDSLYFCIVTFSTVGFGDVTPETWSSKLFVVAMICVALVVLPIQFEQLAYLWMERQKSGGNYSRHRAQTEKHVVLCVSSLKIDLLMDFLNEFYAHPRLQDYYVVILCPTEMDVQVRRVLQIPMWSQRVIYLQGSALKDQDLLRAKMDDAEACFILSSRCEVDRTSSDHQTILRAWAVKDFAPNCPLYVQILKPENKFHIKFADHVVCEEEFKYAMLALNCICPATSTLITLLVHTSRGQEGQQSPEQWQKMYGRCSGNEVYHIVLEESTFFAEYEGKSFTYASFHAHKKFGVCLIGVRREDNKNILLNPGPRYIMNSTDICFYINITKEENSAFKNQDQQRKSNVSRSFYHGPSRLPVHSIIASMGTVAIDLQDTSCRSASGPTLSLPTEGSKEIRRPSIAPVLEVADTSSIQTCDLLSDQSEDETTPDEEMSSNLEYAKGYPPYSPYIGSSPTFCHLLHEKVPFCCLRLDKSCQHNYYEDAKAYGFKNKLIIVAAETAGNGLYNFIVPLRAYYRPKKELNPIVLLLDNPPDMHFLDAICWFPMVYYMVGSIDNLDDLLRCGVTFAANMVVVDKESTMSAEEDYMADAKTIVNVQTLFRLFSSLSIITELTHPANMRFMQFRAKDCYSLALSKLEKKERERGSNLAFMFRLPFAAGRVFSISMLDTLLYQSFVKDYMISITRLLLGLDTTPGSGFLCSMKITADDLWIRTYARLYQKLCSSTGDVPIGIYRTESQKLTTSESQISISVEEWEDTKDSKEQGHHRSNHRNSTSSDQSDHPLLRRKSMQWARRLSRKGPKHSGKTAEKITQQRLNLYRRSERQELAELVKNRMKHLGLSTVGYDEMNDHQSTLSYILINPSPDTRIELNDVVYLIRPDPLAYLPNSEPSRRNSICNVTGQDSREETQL
# [2] = Intrinsic clearance in liver microsomes; type: in vitro ADME, rat; settings: for Rat CLhep, % Hepatic blood flow: rat liver microsomes; for CLhep predicted at 1 μM: rat, liver microsomes, pH 7.4, rat liver microsomes, read-out: Rat CLhep (in vitro hepatic clearance from microsomal CLint)
# Method: (§1) The in vitro intrinsic clearance (CLint) was investigated in commercially obtained hepatic microsomes from mouse, rat, and human donors using the substrate depletion (i.e., loss-of-parent vs time, or half-life (t 1/2) method) approach with analyte detection via liquid chromatography–tandem mass spectrometry (LC-MS/MS). For each species, mean %parent remaining values at each time point were calculated from replicate raw data (analyte:IS peak area ratios) and used to determine in vitro t 1/2 and CLint.
# (§2) Experiments were carried out by using a robot-assisted liquid handler (Bravo with BenchCell, Agilent). The compound was incubated (1 μM final concentration) in buffer (100 mM potassium phosphate pH 7.4 with 3 mM MgCl2) containing hepatic microsomes (0.5 mg/mL final concentration) from each species, discretely, at 37 °C under constant orbital shaking. After 5 min (preincubation), reactions were initiated by the addition of nicotinamide adenine dinucleotide phosphate (NADPH, 1 mM final concentration). At selected time intervals (0, 3, 7, 15, 25, and 45 min) postaddition of NADPH, aliquots (50 μL) were taken and placed into a 96-shallow-well plate containing ice-cold acetonitrile (150 μL) with carbamazepine (IS, 50 nM). The plates were then centrifuged (3000 rcf at 4 °C) for 10 min. The supernatants were transferred to a new 96-shallow-well daughter plate and diluted (1:1 v/v) with water (Milli-Q filtered). The plates were then sealed for preparation for LC-MS/MS analysis (see below).
# (§3) Analyte:IS peak area ratios generated by LC-MS/MS were used to construct natural log-transformed %parent remaining vs time plots (using t = 0 min post-NADPH addition sample data as the starting point set to 100%). In vitro compound t 1/2 values were calculated by using the following equation: t1/2=ln(2)/k where k is the slope from the linear regression analysis of the natural log-transformed data (using means from all replicates at each time point). Resulting t 1/2 values were then used to calculate hepatic CLint values according to the following equation and with the use of species-specific scale-up factors for liver weight (grams) per total body weight (kg): CLint=0.693/invitrot1/2×1mLincubation/0.5mgmicrosomes×45mgmicrosomes/1gramliver×garamliver/kgbodywt
# (§4) ^aScale-up factors used are 45 (rat) and 20 (human).
# (§5) Predicted hepatic clearance (CLhep) was calculated by using the following equation: CLhep=Qh×CLint/Qh+CLint
# (§6) Q h represents hepatic blood flow (mL/min/kg): 21 for humans, 70 for rats, and 90 for mouse.
# [3] = Kinetic solubility; type: physicochemical; settings: aqueous buffer, kinetic from dmso stock; pH 2.2; pH 6.8; read-out: Kinetic Solubility (pH 2.2; pH6.8)
# [4] = Intrinsic clearance in liver microsomes; type: in vitro ADME, human; settings: for Human CLhep, % Hepatic blood flow: human liver microsomes; for CLhep predicted at 1 μM: human, liver microsomes, pH 7.4, human liver microsomes, read-out: Human CLhep (in vitro hepatic clearance from microsomal CLint)
# Method: as §1, §2, §3, §4, §5, §6
"Rat CLhep, % Hepatic blood flow [2]",CLhep predicted at 1 μM [2],solubility kinetic [3],"Human CLhep, % Hepatic blood flow [4]",CLhep predicted at 1 μM [4],SMILES,inhibition at 10 µM [1]
89%,62.4 mL/min/kg,< 0.85 µM,75%,15.8 mL/min/kg,Cc1cc(Cl)cc2sc(O[C@H]3CCN(C(=O)CCCS(=O)(=O)c4cccc(Br)c4)C[C@@H]3F)nc12 [VU6047609],–
76%,53.5 mL/min/kg,< 0.85 µM,82%,17.2 mL/min/kg,Cc1cc(Cl)cc2sc(O[C@@H]3CCN(C(=O)CCCS(=O)(=O)c4cccc(Br)c4)C[C@H]3F)nc12 [VU6047607],–
72%,50.5 mL/min/kg,< 0.85 µM,82%,17.1 mL/min/kg,Cc1cc(Cl)cc2sc(O[C@@H]3CCN(C(=O)CCCS(=O)(=O)c4cccc(Br)c4)C[C@@H]3F)nc12 [VU6047608],–
–,–,–,–,–,Cc1cc(Cl)cc2sc(OC3CCN(C(=O)CCCS(=O)(=O)c4cccc(Br)c4)CC3F)nc12 (stereo not shown) [VU6045330],22%

SMILES,"Rat CLhep, % Hepatic blood flow [2]",CLhep predicted at 1 μM [2],solubility kinetic [3],"Human CLhep, % Hepatic blood flow [4]",CLhep predicted at 1 μM [4],inhibition at 10 µM [1]
Cc1cc(Cl)cc2sc(O[C@H]3CCN(C(=O)CCCS(=O)(=O)c4cccc(Br)c4)C[C@H]3F)nc12 [VU6047606],71%,> 46 mL/min/kg,< 0.85 µM,74%,> 15 mL/min/kg,4%
O=C(c1ccc(OCc2ccc(OC(F)(F)F)cc2)cc1)N1CCN(c2ccc(C(F)(F)F)cn2)CC1 [VU6032735],23%,16.2 mL/min/kg,< 0.95 µM,23%,4.8 mL/min/kg,22%
